From patent US20100286174A1, “INHIBITING GSNOR” (Duke University, priority 2009, published 2010)

Tested on: diabetic nephropathy
Test: Treatment of patient with diabetic nephropathy (Working Example IV)
Assay type: in vivo, human
Conditions: person, creatinine of 3 at start; final concentration 6 micromolar; follow up 2 months later
Description: A person with diabetic nephropathy and creatinine of 3 is started on compound 6 at a final concentration of 6 micromolar and at follow up 2 months later, the creatinine is 2.

Q: Which creatinine does the source give for `CC(=O)CCc1ccc(-c2ccccc2)n1-c1ccc(C(C)=O)cc1` [compound 6] here?
A: 2
